Data as given in US12448388B2, “PRMT5 inhibitors and uses thereof” (Gilead Sciences, Inc., priority 2023, dated 2025).

tested on: HCT116 MTAP-deleted cell lines; test: Cell viability assay (CellTiter-Glo, 7 days), HCT116 MTAP-deleted; format: cell-based; conditions: Homo sapiens, HCT-116
In short: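 Dose-response, PRMT5 inhibitors from DMSO serial dilution, pre-spotted; cells seeded onto compound plates. 7 d, 37 °C/5% CO2/90% RH. Readout: CTG luminescence → CC50.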

SMILES	CC50 [nM]
Nc1nc2cc(F)c(C(=O)N3CCC4(CC4)CC3c3ccc(C(F)(F)F)cn3)cc2n2cncc12 (centres unmarked) [Ff-225, (4-amino-7-fluoroimidazo[1,5-a]quinoxalin-8-yl)(5-(5-(trifluoromethyl)pyridin-2-yl)-6-azaspiro[2.5]octan-6-yl)methanone]	100 to 1000

same assay, conditions: Homo sapiens, HCT-116; cell viability assay, HCT116 MTAP-deleted; class symbols; read-out: CC50

SMILES	CC50 [nM]
Cc1nn(C)cc1N(Cc1ccc(C(F)(F)F)cc1F)C(=O)c1cc2c(cc1F)nc(N)c1cncn12 [Ff-413, 4-amino-N-(1,3-dimethylpyrazol-4-yl)-7-fluoro-N-[[2-fluoro-4-(trifluoromethyl)phenyl]methyl]imidazo[1,5-a]quinoxaline-8-carboxamide]	< 100
CN(C(=O)c1cc2c(cc1F)nc(N)c1cncn12)[C@@H]1COc2cc([C@@H]3C[C@H]3C3CC3)ccc21 (racemic) [Ff-474, Trans-N-((3S)-6-([1,1′-bi(cyclopropan)]-2-yl)-2,3-dihydrobenzofuran-3-yl)-4-amino-7-fluoro-N-methylimidazo[1,5-a]quinoxaline-8-carboxamide]	< 100
Nc1nc2cc(C3CC3)c(C(=O)N3CCC[C@@H]4Oc5cc(C(F)(F)F)ccc5[C@@H]43)cc2n2cncc12 [Fg-56, (4-amino-7-cyclopropylimidazo[1,5-a]quinoxalin-8-yl)((4aS,9bS)-7-(trifluoromethyl)-3,4,4a,9b-tetrahydrobenzofuro[3,2-b]pyridin-1(2H)-yl)methanone]	100 to 1000
C[C@@H]1CN(C(=O)c2ccc3nc(N)c4cncn4c3c2)[C@H]2c3ccc(C(F)(F)F)cc3C[C@H]2O1 [Ff-630, (4-aminoimidazo[1,5-a]quinoxalin-8-yl)((2R,4aS,9aR)-2-methyl-7-(trifluoromethyl)-2,3,9,9a-tetrahydroindeno[2,1-b][1,4]oxazin-4(4aH)-yl)methanone]	< 100
Nc1nc2cc(F)c(C(=O)N3CCC[C@@H]4Oc5cc(C(F)(F)F)ccc5[C@@H]43)cc2n2c(Br)ncc12 (single isomer, unassigned) [Ff-495]	100 to 1000
CN(C(=O)c1cc2c(cc1F)nc(N)c1cncn12)[C@@H]1COc2cc(C3=CCOC3)ccc21 [Ff-483, (S)-4-amino-N-(6-(2,5-dihydrofuran-3-yl)-2,3-dihydrobenzofuran-3-yl)-7-fluoro-N-methylimidazo[1,5-a]quinoxaline-8-carboxamide]	< 100
CN(C(=O)c1cc2c(cc1F)nc(N)c1cncn12)[C@@H]1COc2cc(C34CC(F)(C3)C4)ccc21 [Ff-453, 4-amino-7-fluoro-N-[(3S)-6-(3-fluoro-1-bicyclo[1.1.1]pentanyl)-2,3-dihydrobenzofuran-3-yl]-N-methyl-imidazo[1,5-a]quinoxaline-8-carboxamide]	< 100
CN(C(=O)c1cc2c(cc1F)nc(N)c1cncn12)[C@@H]1COc2cc(OC(F)F)ccc21 (single isomer, unassigned) [Ff-559]	< 100
CN(C(=O)c1cc2c(cc1F)nc(N)c1cncn12)[C@H]1COc2cc(OC(F)(F)F)ccc21 (single isomer, unassigned) [Ff-558]	100 to 1000
CN(C(=O)c1ccc2nc(N)c3cncn3c2c1)[C@@H](c1ccc(C(F)(F)F)cc1Cl)C(F)F [Ff-570, (S)-4-amino-N-(1-(2-chloro-4-(trifluoromethyl)phenyl)-2,2-difluoroethyl)-N-methylimidazo[1,5-a]quinoxaline-8-carboxamide]	100 to 1000
C[C@H](C#N)N(Cc1ccc(C(F)(F)F)cc1F)C(=O)c1cc2c(cc1F)nc(N)c1cncn12 [Ff-418, 4-amino-N-[(1R)-1-cyanoethyl]-7-fluoro-N-[[2-fluoro-4-(trifluoromethyl)phenyl]methyl]imidazo[1,5-a]quinoxaline-8-carboxamide]	100 to 1000
CN(C(=O)c1cc2c(cc1F)nc(N)c1cncn12)[C@@H]1COc2ccc(Br)cc21 [Ff-457, (S)-4-amino-N-(5-bromo-2,3-dihydrobenzofuran-3-yl)-7-fluoro-N-methylimidazo[1,5-a]quinoxaline-8-carboxamide]	< 100
C[C@@H]1OC[C@H](N(C)C(=O)c2ccc3nc(N)c4cncn4c3c2)c2ccc(C(F)(F)F)cc21 (single isomer, unassigned) [Ff-470]	< 100

same assay, conditions: Homo sapiens, HCT-116; cell viability, HCT116 MTAP-deleted; class symbols; read-out: CC50

SMILES	CC50 [nM]
Nc1nc2cc(F)c(C(=O)N3CCC[C@@H]4Oc5nc(C(F)(F)F)ccc5[C@@H]43)cc2n2cncc12 [Ff-361, (4-amino-7-fluoroimidazo[1,5-a]quinoxalin-8-yl)((4aS,9bS)-7-(trifluoromethyl)-3,4,4a,9b-tetrahydrofuro[2,3-b:4,5-b′]dipyridin-1(2H)-yl)methanone]	< 100
C[C@H]1CN(C(=O)c2cc3c(cc2F)nc(N)c2cncn23)[C@@H](c2ccc(C(F)(F)F)cn2)CO1 [Ff-130, (4-amino-7-fluoroimidazo[1,5-a]quinoxalin-8-yl)((2S,5S)-2-methyl-5-(5-(trifluoromethyl)pyridin-2-yl)morpholino)methanone]	< 100
CN(C(=O)c1cc2c(cc1F)nc(N)c1cncn12)[C@@H](c1ccc(OC(F)(F)F)cc1)C(F)F [Fb-13, (S)-4-amino-N-(2,2-difluoro-1-(4-(trifluoromethoxy)phenyl)ethyl)-7-fluoro-N-methylimidazo[1,5-a]quinoxaline-8-carboxamide]	< 100
Nc1nc2cc(F)c(C(=O)N3CCC[C@@H]4Cc5nc(C(F)(F)F)ccc5[C@@H]43)cc2n2cncc12 (racemic) [Ff-314, Rac-(4-amino-7-fluoroimidazo[1,5-a]quinoxalin-8-yl)((4bR,8aR)-2-(trifluoromethyl)-4b,6,7,8,8a,9-hexahydro-5H-cyclopenta[1,2-b:3,4-b′]dipyridin-5-yl)methanone]	< 100
CCN(Cc1ccc(F)cc1Cl)C(=O)c1ccc2nc(N)c3cncn3c2c1 [Ff-71, 4-amino-N-(2-chloro-4-fluorobenzyl)-N-ethylimidazo[1,5-a]quinoxaline-8-carboxamide]	100 to 1000
Cn1ccc(N(Cc2ccc(C(F)(F)F)cn2)C(=O)c2cc3c(cc2F)nc(N)c2cncn23)n1 [Ff-306, 4-amino-7-fluoro-N-(1-methyl-1H-pyrazol-3-yl)-N-((5-(trifluoromethyl)pyridin-2-yl)methyl)imidazo[1,5-a]quinoxaline-8-carboxamide]	< 100
CN(Cc1ccc2c(c1)OC(F)(F)O2)C(=O)c1ccc2nc(N)c3cncn3c2c1 [Ff-123, 4-amino-N-((2,2-difluorobenzo[d][1,3]dioxol-5-yl)methyl)-N-methylimidazo[1,5-a]quinoxaline-8-carboxamide]	100 to 1000
CN(C(=O)c1cc2c(cn1)nc(N)c1cncn12)[C@@H]1COc2cc(C(F)(F)F)ccc21 [Ff-342, (S)-4-amino-N-methyl-N-(6-(trifluoromethyl)-2,3-dihydrobenzofuran-3-yl)imidazo[1,5-a]pyrido[3,4-e]pyrazine-8-carboxamide]	< 100
Nc1nc2cnc(C(=O)N3CCCC[C@@H]3c3ccc(C(F)(F)F)cc3)cc2n2cncc12 [Ff-87, (R)-(4-aminoimidazo[1,5-a]pyrido[3,4-e]pyrazin-8-yl)(2-(4-(trifluoromethyl)phenyl)piperidin-1-yl)methanone]	< 100
C[C@@H]1C[C@@H]2OCc3nc(C(F)(F)F)ccc3[C@@H]2N(C(=O)c2cc3c(cc2F)nc(N)c2cncn23)C1 (racemic) [Ff-323, Rac-(4-amino-7-fluoroimidazo[1,5-a]quinoxalin-8-yl)((3R,4aS,10bS)-3-methyl-8-(trifluoromethyl)-2,3,4,4a,6,10b-hexahydro-1H-pyrano[3,2-b:5,4-b′]dipyridin-1-yl)methanone]	< 100
C[C@@H]1CN(C(=O)c2cc3c(cn2)nc(N)c2cncn23)[C@H]2c3cc(F)c(OC(F)(F)F)cc3C[C@H]2O1 (single isomer, unassigned) [Ff-195]	< 100
CN(C(=O)c1ccc2nc(N)c3cncn3c2c1)[C@@H](c1ccc(C(F)(F)F)cc1F)C(F)F [Fb-14, (S)-4-amino-N-(2,2-difluoro-1-(2-fluoro-4-(trifluoromethyl)phenyl)ethyl)-N-methylimidazo[1,5-a]quinoxaline-8-carboxamide]	< 100
Cc1ncn2c1c(N)nc1cc(F)c(C(=O)N3CCOC[C@@H]3c3ccc(C(F)(F)F)cc3)cc12 [Ff-137]	< 100
CN(C(=O)c1cc2c(cc1F)nc(N)c1cncn12)[C@@H]1COc2cc(-c3csc(C(F)(F)F)n3)ccc21 [Ff-231, (S)-4-amino-7-fluoro-N-methyl-N-(6-(2-(trifluoromethyl)thiazol-4-yl)-2,3-dihydrobenzofuran-3-yl)imidazo[1,5-a]quinoxaline-8-carboxamide]	100 to 1000
CC(C)N(Cc1ccc(-c2ccnn2C)cc1F)C(=O)c1cc2c(cc1F)nc(N)c1cncn12 [Ff-217, 4-amino-7-fluoro-N-(2-fluoro-4-(1-methyl-1H-pyrazol-5-yl)benzyl)-N-isopropylimidazo[1,5-a]quinoxaline-8-carboxamide]	< 100
C[C@@H]1CC[C@@H]2Oc3cc(C(F)(F)F)ccc3[C@@H]2N1C(=O)c1cc2c(cc1F)nc(N)c1cncn12 (racemic) [Ff-100, Rac-(4-amino-7-fluoroimidazo[1,5-a]quinoxalin-8-yl)((2R,4aS,9bS)-2-methyl-7-(trifluoromethyl)-3,4,4a,9b-tetrahydrobenzofuro[3,2-b]pyridin-1(2H)-yl)methanone]	< 100
Cc1ncc2c(N)nc3ccc(C(=O)N4C[C@@H](C)O[C@@H]5Cc6cc(OC(F)(F)F)ccc6[C@@H]54)cc3n12 (single isomer, unassigned) [Ff-189]	100 to 1000
Nc1nc2cc(F)c(C(=O)N3CCC[C@@H]4OCc5cc(-c6cnn(C(F)(F)F)c6)ccc5[C@@H]43)cc2n2cncc12 (racemic) [Ff-295, Rac-(4-amino-7-fluoroimidazo[1,5-a]quinoxalin-8-yl)((4aS,10bS)-8-(1-(trifluoromethyl)-1H-pyrazol-4-yl)-2,3,4,4a,6,10b-hexahydro-1H-isochromeno[4,3-b]pyridin-1-yl)methanone]	< 100
